{
  "source": "ChEMBL document CHEMBL5380816",
  "about": "“Inclusion of Nitrofurantoin into the Realm of Cancer Chemotherapy via Biology-Oriented Synthesis and Drug Repurposing” (J Med Chem, 2023)",
  "key": {"MCF7 [1]": {"test_system": "MCF7", "experiment": "Induction of apoptosis in human MCF7 cells assessed as late apoptotic cells incubated at 0.098 uM for 72 hrs by annexin V-FITC based propidium iodide dual staining assay (reference value: 0.01%)", "type": "functional"}, "HeLa [2]": {"test_system": "HeLa", "experiment": "Induction of apoptosis in human HeLa cells assessed as total apoptotic cells incubated at 0.098 uM for 72 hrs by annexin V-FITC based propidium iodide dual staining assay (reference value: 0 +/- 0.035%)", "type": "functional"}, "MCF7 [3]": {"test_system": "MCF7", "experiment": "Induction of apoptosis in human MCF7 cells assessed as viable cells incubated at 0.098 uM for 72 hrs by annexin V-FITC based propidium iodide dual staining assay (reference value: 99.9%)", "type": "functional", "conditions": "read-out: Activity"}, "Caco-2 [4]": {"test_system": "Caco-2", "experiment": "Induction of apoptosis in human Caco-2 cells assessed as early apoptotic cells by measuring bright green patch incubated at 0.098 uM for 72 hrs by acridine orange-ethidium bromide dual staining based fluorescence microscopic analysis", "type": "functional, cell-based"}, "MCF7 [5]": {"test_system": "MCF7", "experiment": "Anticancer activity against human MCF7 cells assessed as cell shrinkage incubated at 0.098uM for 72 hrs by phase contrast inverted microscopic analysis", "type": "functional, cell-based"}, "HeLa [6]": {"test_system": "HeLa", "experiment": "Anticancer activity against human HeLa cells assessed as losing contact with neighbouring cells incubated at 0.098uM for 72 hrs by phase contrast inverted microscopic analysis", "type": "functional, cell-based"}, "HepG2 [7]": {"test_system": "HepG2", "experiment": "Anticancer activity against human HepG2 cells assessed as absence of normal spindle shape incubated at 0.098uM for 72 hrs by phase contrast inverted microscopic analysis", "type": "functional, cell-based"}, "HeLa [8]": {"test_system": "HeLa", "experiment": "Anticancer activity against human HeLa cells assessed as smaller cells incubated at 0.098uM for 72 hrs by phase contrast inverted microscopic analysis", "type": "functional, cell-based"}, "HeLa [9]": {"test_system": "HeLa", "experiment": "Induction of apoptosis in human HeLa cells assessed as early apoptotic cells incubated at 0.098 uM for 72 hrs by annexin V-FITC based propidium iodide dual staining assay (reference value: 2.77%)", "type": "functional"}, "HeLa [10]": {"test_system": "HeLa", "experiment": "Induction of apoptosis in human HeLa cells assessed as necrotic cells incubated at 0.098 uM for 72 hrs by annexin V-FITC based propidium iodide dual staining assay (reference value: 0%)", "type": "functional"}, "MCF7 [11]": {"test_system": "MCF7", "experiment": "Anticancer activity against human MCF7 cells assessed as losing contact with neighbouring cells incubated at 0.098uM for 72 hrs by phase contrast inverted microscopic analysis", "type": "functional, cell-based"}, "MCF7 [12]": {"test_system": "MCF7", "experiment": "Induction of apoptosis in human MCF7 cells assessed as total apoptotic cells incubated at 0.097 uM for 72 hrs by annexin V-FITC based propidium iodide dual staining assay (reference value: 0.04 %)", "type": "functional"}, "Caco-2 [13]": {"test_system": "Caco-2", "experiment": "Induction of apoptosis in human Caco-2 cells assessed as late apoptotic cells incubated at 0.097 uM for 72 hrs by annexin V-FITC based propidium iodide dual staining assay (reference value: 0.02%)", "type": "functional"}, "HeLa [14]": {"test_system": "HeLa", "experiment": "Anticancer activity against human HeLa cells assessed as cell shrinkage incubated at 0.097uM for 72 hrs by phase contrast inverted microscopic analysis", "type": "functional, cell-based"}, "HeLa [15]": {"test_system": "HeLa", "experiment": "Induction of apoptosis in human HeLa cells assessed as viable cells incubated at 0.097 uM for 72 hrs by annexin V-FITC based propidium iodide dual staining assay (reference value: 97.23%)", "type": "functional", "conditions": "read-out: Activity"}, "Caco-2 [16]": {"test_system": "Caco-2", "experiment": "Induction of apoptosis in human Caco-2 cells assessed as early apoptotic cells incubated at 0.097 uM for 72 hrs by annexin V-FITC based propidium iodide dual staining assay (reference value: 0.07%)", "type": "functional"}, "MCF7 [17]": {"test_system": "MCF7", "experiment": "Induction of apoptosis in human MCF7 cells assessed as early apoptotic cells by measuring bright green patch incubated at 0.097 uM for 72 hrs by acridine orange-ethidium bromide dual staining based fluorescence microscopic analysis", "type": "functional, cell-based"}, "Caco-2 [18]": {"test_system": "Caco-2", "experiment": "Anticancer activity against human Caco-2 cells assessed as losing contact with neighbouring cells incubated at 0.097uM for 72 hrs by phase contrast inverted microscopic analysis", "type": "functional, cell-based"}, "Caco-2 [19]": {"test_system": "Caco-2", "experiment": "Induction of apoptosis in human Caco-2 cells assessed as viable cells incubated at 0.097 uM for 72 hrs by annexin V-FITC based propidium iodide dual staining assay (reference value: 99.89%)", "type": "functional", "conditions": "read-out: Activity"}, "dsDNA": {"test_system": "dsDNA", "experiment": "Induction of damage in dsDNA (unknown origin) assessed as disrupted by DNA by measuring decrease in fluorescence intensity at 100 uM incubated for 50 mins by EvaGreen based fluorescence plate reader analysis", "type": "nucleic-acid assay"}, "Caco-2 [20]": {"test_system": "Caco-2", "experiment": "Induction of apoptosis in human Caco-2 cells assessed as late apoptotic cells incubated at 0.11 uM for 72 hrs by annexin V-FITC based propidium iodide dual staining assay (reference value: 0.02%)", "type": "functional"}, "MCF7 [21]": {"test_system": "MCF7", "experiment": "Induction of apoptosis in human MCF7 cells assessed as viable cells incubated at 0.11 uM for 72 hrs by annexin V-FITC based propidium iodide dual staining assay (reference value: 99.9%)", "type": "functional", "conditions": "read-out: Activity"}, "Caco-2 [22]": {"test_system": "Caco-2", "experiment": "Anticancer activity against human Caco-2 cells assessed as round cells incubated at 0.11 uM for 72 hrs by phase contrast inverted microscopic analysis", "type": "functional, cell-based"}, "UMUC3": {"test_system": "UMUC3", "experiment": "Anti-clonogenicic activity in human UC3 cells assessed as reduction of colony formation at 5 uM for 24 hrs by crystal violet based staining relative to control", "type": "functional", "parameters": "scale not given: the % may be the effect or the level left"}, "MCF7 [23]": {"test_system": "MCF7", "experiment": "Anticancer activity against human MCF7 cells assessed as round cells incubated at 0.11 uM for 72 hrs by phase contrast inverted microscopic analysis", "type": "functional, cell-based"}, "MCF7 [24]": {"test_system": "MCF7", "experiment": "Anticancer activity against human MCF7 cells assessed as absence of normal spindle shape incubated at 0.11 uM for 72 hrs by phase contrast inverted microscopic analysis", "type": "functional, cell-based"}, "HeLa [25]": {"test_system": "HeLa", "experiment": "Induction of oxidative stress in human HeLa cells assessed as cell death by measuring redox alteration fluorescence incubated at 0.098 uM for 72 hrs in presence of dihydro dichlorofluorescein diacetate by DCFH-DA based flow cytometric analysis relative to control", "type": "functional"}, "HepG2 [26]": {"test_system": "HepG2", "experiment": "Anticancer activity against human HepG2 cells assessed as losing contact with neighbouring cells incubated at 0.11 uM for 72 hrs by phase contrast inverted microscopic analysis", "type": "functional, cell-based"}, "HepG2 [27]": {"test_system": "HepG2", "experiment": "Anticancer activity against human HepG2 cells assessed as smaller cells incubated at 0.11 uM for 72 hrs by phase contrast inverted microscopic analysis", "type": "functional, cell-based"}, "Homo sapiens": {"species_on_record": "Homo sapiens", "experiment": "Selectivity index, ratio IC50 for human MDA-MB-231 cells to IC50 for human MCF7 cells"}, "Caco-2 [28]": {"test_system": "Caco-2", "experiment": "Induction of apoptosis in human Caco-2 cells assessed as viable cells incubated at 0.11 uM for 72 hrs by annexin V-FITC based propidium iodide dual staining assay (reference value: 99.89%)", "type": "functional", "conditions": "read-out: Activity"}, "HepG2 [29]": {"test_system": "HepG2", "experiment": "Anticancer activity against human HepG2 cells incubated for 24 hrs by MTT assay", "type": "functional, cell-based", "conditions": "HepG2, 24 h"}, "HeLa [30]": {"test_system": "HeLa", "experiment": "Induction of apoptosis in human HeLa cells assessed as total apoptotic cells incubated at 0.11 uM for 72 hrs by annexin V-FITC based propidium iodide dual staining assay (reference value: 0 +/- 0.035%)", "type": "functional"}, "MCF7 [31]": {"test_system": "MCF7", "experiment": "Induction of DNA damage in human MCF7 cells assessed as increase in p53 expression at 5 uM incubated for 24 hrs by Western blot analysis", "type": "functional, cell-based"}, "HepG2 [32]": {"test_system": "HepG2", "experiment": "Induction of apoptosis in human HepG2 cells assessed as early apoptotic cells incubated at 0.017 uM for 72 hrs by annexin V-FITC based propidium iodide dual staining assay (reference value: 1.74%)", "type": "functional"}, "HeLa [33]": {"test_system": "HeLa", "experiment": "Induction of apoptosis in human HeLa cells assessed as early apoptotic cells incubated at 0.017 uM for 72 hrs by annexin V-FITC based propidium iodide dual staining assay (reference value: 2.77%)", "type": "functional"}},
  "note": "The source made the active and inactive calls. No cut-off for these calls is given here.",
  "data": [
    {"compound": "O=C(CN1C(=O)CN(/N=C/c2ccc([N+](=O)[O-])o2)C1=O)c1ccc(Cl)cc1", "values": [
      {"measurement": "Activity", "setting": "MCF7 [1]", "result": 38.55, "unit": "%"},
      {"measurement": "Activity", "setting": "HeLa [2]", "result": 64.08, "unit": "%"},
      {"measurement": "viability at 0.098 µM", "setting": "MCF7 [3]", "result": 63.6, "unit": "%"},
      {"measurement": "Activity", "setting": "Caco-2 [4]", "result": "Active"},
      {"measurement": "Activity", "setting": "MCF7 [5]", "result": "Active"},
      {"measurement": "Activity", "setting": "HeLa [6]", "result": "Active"},
      {"measurement": "Activity", "setting": "HepG2 [7]", "result": "Active"},
      {"measurement": "Activity", "setting": "HeLa [8]", "result": "Active"},
      {"measurement": "Activity", "setting": "HeLa [9]", "result": 6.1, "unit": "%"},
      {"measurement": "Activity", "setting": "HeLa [10]", "result": 1.16, "unit": "%"},
      {"measurement": "Activity", "setting": "MCF7 [11]", "result": "Active"}
    ]},
    {"compound": "NS(=O)(=O)c1ccc(-n2cc(CN3C(=O)CN(/N=C/c4ccc([N+](=O)[O-])o4)C3=O)nn2)cc1", "values": [
      {"measurement": "Activity", "setting": "MCF7 [12]", "result": 64.08, "unit": "%"},
      {"measurement": "Activity", "setting": "Caco-2 [13]", "result": 22.46, "unit": "%"},
      {"measurement": "Activity", "setting": "HeLa [14]", "result": "Active"},
      {"measurement": "viability at 0.097 µM", "setting": "HeLa [15]", "result": 43.3, "unit": "%"},
      {"measurement": "Activity", "setting": "Caco-2 [16]", "result": 30.95, "unit": "%"},
      {"measurement": "Activity", "setting": "MCF7 [17]", "result": "Active"},
      {"measurement": "Activity", "setting": "Caco-2 [18]", "result": "Active"},
      {"measurement": "viability at 0.097 µM", "setting": "Caco-2 [19]", "result": 32.8, "unit": "%"}
    ]},
    {"compound": "C#CCN1C(=O)CN(/N=C/c2ccc([N+](=O)[O-])o2)C1=O", "values": [
      {"measurement": "Activity", "setting": "dsDNA", "result": "Active"},
      {"measurement": "Activity", "setting": "Caco-2 [20]", "result": 42.24, "unit": "%"},
      {"measurement": "viability at 0.11 µM", "setting": "MCF7 [21]", "result": 53.7, "unit": "%"},
      {"measurement": "Activity", "setting": "Caco-2 [22]", "result": "Active"},
      {"measurement": "Activity", "setting": "UMUC3", "result": 75, "unit": "%"},
      {"measurement": "Activity", "setting": "MCF7 [23]", "result": "Active"},
      {"measurement": "Activity", "setting": "MCF7 [24]", "result": "Active"},
      {"measurement": "Activity", "setting": "HeLa [25]", "result": 30.75, "unit": "%"},
      {"measurement": "Activity", "setting": "HepG2 [26]", "result": "Active"},
      {"measurement": "Activity", "setting": "HepG2 [27]", "result": "Active"},
      {"measurement": "Ratio IC50", "setting": "Homo sapiens", "result": 2},
      {"measurement": "viability at 0.11 µM", "setting": "Caco-2 [28]", "result": 49.4, "unit": "%"},
      {"measurement": "IC50", "setting": "HepG2 [29]", "result": 117, "unit": "µM"},
      {"measurement": "Activity", "setting": "HeLa [30]", "result": 25.17, "unit": "%"},
      {"measurement": "Activity", "setting": "MCF7 [31]", "result": "Active"}
    ]},
    {"compound": "O=c1[nH]cc(F)c(=O)[nH]1", "note": "[FLUOROURACIL]", "values": [
      {"measurement": "Activity", "setting": "HepG2 [32]", "result": 7.69, "unit": "%"},
      {"measurement": "Activity", "setting": "HeLa [33]", "result": 7.6, "unit": "%"}
    ]}
  ]
}
